Source: PubChem BioAssay AID248 (DTP/NCI, 2004)
“And” between values parts separate entries of the source, which are not always exact repeats. Identical values can stand only once. Toxic doses and inconclusive results are not listed. Peptide text beside a SMILES is read from it. * marks the point of attachment. Cbz = O=C(OCc1ccccc1)*

Test system: L1210 leukemia ip in BDF1 mice, survival T/C
Assay: NCI In Vivo Anticancer Drug Screen. Data for tumor model L1210 Leukemia (intraperitoneal) in B6D2F1 (BDF1) mice
Conditions: endpoint: mean survival time, higher = longer survival
How it was run: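 Survival endpoint. Drug-treated group vs vehicle group, expressed as T divided by C. Tumor passaged by transplantation.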

[1] = dose: 100.0 mg/kg/injection, schedule: Q01DX009 (ip), vehicle: saline
[2] = dose: 100.0 mg/kg/injection, schedule: Q04DX003 (ip), vehicle: saline
[3] = dose: 200.0 mg/kg/injection, schedule: Q01DX009 (ip), vehicle: saline
[4] = dose: 200.0 mg/kg/injection, schedule: Q04DX003 (ip), vehicle: saline
[5] = dose: 400.0 mg/kg/injection, schedule: Q04DX003 (ip), vehicle: saline
[6] = dose: 100.0 mg/kg/injection, schedule: Q04DX003 (ip), vehicle: saline with Tween-80
[7] = dose: 200.0 mg/kg/injection, schedule: Q04DX003 (ip), vehicle: saline with Tween-80
[8] = dose: 400.0 mg/kg/injection, schedule: Q04DX003 (ip), vehicle: saline with Tween-80
[9] = dose: 100.0 mg/kg/injection, schedule: Q01DX009 (ip), vehicle: water
[10] = dose: 200.0 mg/kg/injection, schedule: Q01DX009 (ip), vehicle: water
[11] = dose: 400.0 mg/kg/injection, schedule: Q01DX009 (ip), vehicle: water
[12] = dose: 100.0 mg/kg/injection, schedule: Q01DX001 (ip), vehicle: carboxymethylcellulose (CMC)
[13] = dose: 200.0 mg/kg/injection, schedule: Q01DX001 (ip), vehicle: carboxymethylcellulose (CMC)
[14] = dose: 400.0 mg/kg/injection, schedule: Q01DX001 (ip), vehicle: carboxymethylcellulose (CMC)
[15] = dose: 100.0 mg/kg/injection, schedule: Q04DX002 (ip), vehicle: saline with Tween-80
[16] = dose: 200.0 mg/kg/injection, schedule: Q01DX009 (ip), vehicle: saline with Tween-80
[17] = dose: 400.0 mg/kg/injection, schedule: Q01DX009 (ip), vehicle: saline with Tween-80
[18] = dose: 100.0 mg/kg/injection, schedule: Q04DX002 (ip), vehicle: Klucel (hydroxypropylcellulose) (HPC)
[19] = dose: 100.0 mg/kg/injection, schedule: Q04DX003 (ip), vehicle: Klucel (hydroxypropylcellulose) (HPC)
[20] = dose: 200.0 mg/kg/injection, schedule: Q04DX003 (ip), vehicle: Klucel (hydroxypropylcellulose) (HPC)
[21] = dose: 400.0 mg/kg/injection, schedule: Q04DX003 (ip), vehicle: Klucel (hydroxypropylcellulose) (HPC)
[22] = dose: 100.0 mg/kg/injection, schedule: Q01DX009 (ip), vehicle: Klucel (hydroxypropylcellulose) (HPC)
[23] = dose: 200.0 mg/kg/injection, schedule: Q01DX009 (ip), vehicle: Klucel (hydroxypropylcellulose) (HPC)
[24] = dose: 400.0 mg/kg/injection, schedule: Q01DX009 (ip), vehicle: Klucel (hydroxypropylcellulose) (HPC)

In the case of `CC(C)NNC(=O)C(C)O` (stereo unspecified), the T/C (dose: 25.0 mg/kg/injection, schedule: Q01DX009 (ip), vehicle: saline) is reported as 93 % of control, the T/C (dose: 25.0 mg/kg/injection, schedule: Q04DX003 (ip), vehicle: saline) is reported as 109 % of control and the T/C (dose: 50.0 mg/kg/injection, schedule: Q01DX009 (ip), vehicle: saline) is reported as 90 % of control. The T/C (dose: 50.0 mg/kg/injection, schedule: Q04DX003 (ip), vehicle: saline) was 96 % of control, the T/C [1] was 97 % of control and the T/C [2] was 93 % of control. For the same molecule, the T/C [3] was 87 % of control, the T/C [4] was 112 % of control and the T/C (dose: 400.0 mg/kg/injection, schedule: Q01DX009 (ip), vehicle: saline) was 95 % of control. The T/C [5] was 96 % of control.
For `CCCCCCCCCCCCNC1=C(Cl)C(=O)C(=O)c2cccnc21`, the T/C [6] was 98 % of control, the T/C [7] was 101 % of control and the T/C [8] was 95 % of control.
`O=NN1CCCNCC1` was tested, and the T/C (dose: 25.0 mg/kg/injection, schedule: Q01DX009 (ip), vehicle: water) was 104 % of control, the T/C (dose: 50.0 mg/kg/injection, schedule: Q01DX009 (ip), vehicle: water) was 111 % of control and the T/C [9] was 106 % of control. The T/C [10] was 101 % of control and the T/C [11] was 112 % of control.
`C/C(=N/N(C)C)c1ccc([N+](=O)[O-])cc1` was tested, and the T/C [1] was 113 % of control and the T/C [3] was 89 % of control.
For `Cc1ccc(S(=O)(=O)N(CCC(=O)O)Cc2ccccc2)cc1`, the T/C [12] was 121 % of control, the T/C [13] was 103 % of control and the T/C [14] was 108 % of control.
With `O=C(NC(=S)Nc1cc(C(F)(F)F)ccc1Cl)c1ccccc1F` the T/C (dose: 12.5 mg/kg/injection, schedule: Q01DX009 (ip), vehicle: saline with Tween-80) was 93 % of control and 97 % of control, the T/C (dose: 100.0 mg/kg/injection, schedule: Q01DX001 (ip), vehicle: saline with Tween-80) was 104 % of control and the T/C [15] was 97 % of control and 100 % of control. For the same molecule, the T/C (dose: 200.0 mg/kg/injection, schedule: Q01DX001 (ip), vehicle: saline with Tween-80) was 102 % of control, the T/C [16] was 86 % of control and the T/C (dose: 200.0 mg/kg/injection, schedule: Q04DX002 (ip), vehicle: saline with Tween-80) was 93 % of control and 97 % of control. The T/C (dose: 400.0 mg/kg/injection, schedule: Q01DX001 (ip), vehicle: saline with Tween-80) was 102 % of control, the T/C [17] was 95 % of control and the T/C (dose: 400.0 mg/kg/injection, schedule: Q04DX002 (ip), vehicle: saline with Tween-80) was 100 % of control and 91 % of control. The T/C [8] was 87 % of control.
For `O=C1c2cccc([N+](=O)[O-])c2C(=O)C1c1ccccn1` (stereo unspecified), the T/C [6] was 101 % of control, the T/C [7] was 90 % of control and the T/C [8] was 101 % of control.
In the case of `COC(=O)CSc1ncc2cnccn12`, the T/C [9] is reported as 105 % of control, the T/C (dose: 100.0 mg/kg/injection, schedule: Q04DX003 (ip), vehicle: water) is reported as 119 % of control and the T/C [10] is reported as 98 % of control. The T/C (dose: 200.0 mg/kg/injection, schedule: Q04DX003 (ip), vehicle: water) was 98 % of control, the T/C [11] was 98 % of control and the T/C (dose: 400.0 mg/kg/injection, schedule: Q04DX003 (ip), vehicle: water) was 104 % of control.
In the case of `CSc1ncnc2c1C[P+](Cc1ccccc1)(c1ccccc1)CC2` (stereo unspecified), the T/C [15] is reported as 103 % of control.
`CC(NC(=O)OCc1ccccc1)C(=O)NC(CC(N)=O)C(=O)O` (stereo not drawn) (Cbz-Ala-Asn-OH; configuration not given here) was tested, and the T/C (dose: 25.0 mg/kg/injection, schedule: Q04DX002 (ip), vehicle: Klucel (hydroxypropylcellulose) (HPC)) was 95 % of control, the T/C (dose: 50.0 mg/kg/injection, schedule: Q04DX002 (ip), vehicle: Klucel (hydroxypropylcellulose) (HPC)) was 95 % of control and the T/C [18] was 95 % of control.
For `O=c1[nH]c2c(c(=O)[nH]1)OCN(Cc1ccccc1)C2`, the T/C (dose: 50.0 mg/kg/injection, schedule: Q01DX001 (ip), vehicle: carboxymethylcellulose (CMC)) was 98 % of control, the T/C [12] was 105 % of control and the T/C [13] was 100 % of control. The T/C [14] was 100 % of control.
For `O=C(O)CCCCC(=O)c1cc(O)ccc1O`, the T/C [19] was 102 % of control, the T/C [20] was 104 % of control and the T/C [21] was 102 % of control.
In the case of `CN(C)c1ccc(Cc2ccc(N(C)C)cc2[N+](=O)[O-])c([N+](=O)[O-])c1`, the T/C (dose: 50.0 mg/kg/injection, schedule: Q01DX009 (ip), vehicle: Klucel (hydroxypropylcellulose) (HPC)) is reported as 100 % of control, the T/C [22] is reported as 98 % of control and 92 % of control and the T/C [19] is reported as 101 % of control and 102 % of control. For the same molecule, the T/C [23] was 97 % of control and 101 % of control, the T/C [20] was 102 % of control and 104 % of control and the T/C [24] was 101 % of control and 92 % of control. For the same molecule, the T/C [21] was 98 % of control and 105 % of control.
With `N#CC(C#N)=Cc1cccc(OCc2ccccc2)c1` the T/C [22] was 100 % of control, the T/C [23] was 91 % of control and the T/C [24] was 91 % of control.
For `c1ccc(-c2cc[c]([Sn]([c]3ccccc3)([c]3ccccc3)[c]3ccccc3)cc2)cc1`, the T/C (dose: 100.0 mg/kg/injection, schedule: Q04DX002 (ip), vehicle: other) was 103 % of control, the T/C (dose: 200.0 mg/kg/injection, schedule: Q04DX002 (ip), vehicle: other) was 107 % of control and the T/C (dose: 400.0 mg/kg/injection, schedule: Q04DX002 (ip), vehicle: other) was 96 % of control.
For `O=C(Nc1ccc(CCO)cc1)Nc1ccccc1C(F)(F)F`, the T/C (dose: 100.0 mg/kg/injection, schedule: Q01DX009 (ip), vehicle: saline with Tween-80) was 97 % of control, the T/C [16] was 90 % of control and the T/C [17] was 92 % of control.
For `CSc1ccc(NC(=O)C(Br)C(Br)c2ccccc2)cc1` (stereo unspecified), the T/C [22] was 103 % of control, the T/C [23] was 105 % of control and the T/C [24] was 102 % of control.
For `O=C(OCc1ccccc1CN1CCCC1)c1ccc(Cl)cc1`, the T/C [18] was 111 % of control, the T/C (dose: 200.0 mg/kg/injection, schedule: Q04DX002 (ip), vehicle: Klucel (hydroxypropylcellulose) (HPC)) was 96 % of control and the T/C (dose: 400.0 mg/kg/injection, schedule: Q04DX002 (ip), vehicle: Klucel (hydroxypropylcellulose) (HPC)) was 111 % of control.
With `c1ccc2c(c1)OB(C1CCCC1)O2` the T/C [19] was 95 % of control, the T/C [20] was 93 % of control and the T/C [21] was 100 % of control.
In the case of `NC(CSCc1cc(=O)[nH]c(=O)[nH]1)C(=O)O` (stereo unspecified), the T/C [2] is reported as 97 % of control, the T/C [4] is reported as 97 % of control and the T/C [5] is reported as 95 % of control.
For `CCCCCCC(=O)CC(C)C`, the T/C [22] was 101 % of control, the T/C [19] was 97 % of control and the T/C [23] was 103 % of control. The T/C [20] was 102 % of control, the T/C [24] was 109 % of control and the T/C [21] was 107 % of control.
`Nc1ncnc2c1ncn2C1C=CC(CO)O1` (stereo unspecified) was tested, and the T/C (dose: 100.0 mg/kg/injection, schedule: Q01DX001 (ip), vehicle: saline) was 102 % of control, the T/C (dose: 200.0 mg/kg/injection, schedule: Q01DX001 (ip), vehicle: saline) was 100 % of control and the T/C (dose: 400.0 mg/kg/injection, schedule: Q01DX001 (ip), vehicle: saline) was 102 % of control.
In the case of `Cc1c(N=Cc2ccccc2)c(=O)n(-c2ccccc2)n1C`, the T/C (dose: 100.0 mg/kg/injection, schedule: Q01DX009 (ip), vehicle: gum acacia) is reported as 104 % of control, the T/C (dose: 100.0 mg/kg/injection, schedule: Q04DX003 (ip), vehicle: gum acacia) is reported as 100 % of control and the T/C (dose: 200.0 mg/kg/injection, schedule: Q04DX003 (ip), vehicle: gum acacia) is reported as 95 % of control. The T/C (dose: 400.0 mg/kg/injection, schedule: Q01DX009 (ip), vehicle: gum acacia) was 88 % of control and the T/C (dose: 400.0 mg/kg/injection, schedule: Q04DX003 (ip), vehicle: gum acacia) was 95 % of control.
`O=C(Nc1ccc2ccccc2c1)c1ccc(Cl)c(Cl)c1` was tested, and the T/C [22] was 95 % of control, the T/C [23] was 103 % of control and the T/C [24] was 103 % of control.
For `Nc1nc(SCC(=O)c2ccccc2)c2[nH]cnc2n1`, the T/C (dose: 117.0 mg/kg/injection, schedule: Q01DX009 (ip), vehicle: saline with Tween-80) was 153 % of control, the T/C (dose: 176.0 mg/kg/injection, schedule: Q01DX009 (ip), vehicle: saline with Tween-80) was 151 % of control and the T/C [16] was 104 % of control. The T/C (dose: 264.0 mg/kg/injection, schedule: Q01DX009 (ip), vehicle: saline with Tween-80) was 156 % of control and the T/C [17] was 152 % of control.
In the case of `C#CCN(C)CCO`, the T/C [6] is reported as 97 % of control, the T/C [7] is reported as 106 % of control and the T/C [8] is reported as 100 % of control.
